The record followed here is US20140073700A1, “[…] ACID DERIVATIVES AND METHODS OF USE THEREOF” (AbbVie Inc., priority 2012, published 2014).

pIC50: −log10 of the molar value.

The term pIC50 denotes −log10 of the IC50, conventionally taken in molar units. A lower pIC50 goes with a high IC50.

The subject of this experiment is IFNγ-Induced NO Production in RAW 264.7 cells. Put plainly: Nitric Oxide Suppression Assay (suppression of IFNγ-induced NO production). In kind it is cell-based. The note with it: RAW264.7; RAW 264.7 mouse macrophage cells, 20 ng/mL interferon gamma, Griess detection; single curve fit to mean data of n=2-3. On the procedure: RAW 264.7, a mouse macrophage cell line, was obtained from American Type Culture Collection (Manassas Va.) and maintained in the log phase of growth in Dulbecco's Modified Eagle's Medium (DMEM), 10% heat inactivated fetal calf serum and 100 units/mL antibiotic-antimycotic (AA). Cells were cultured and maintained in a humidified incubator at 37° C. under 5% CO2 and 95% air. Cells were sub-cultured every 3 days by scraping and were not used beyond passage 20. All cell culture supplies were obtained from Life Technologies (Grand Island, N.Y.).
RAW 264.7 cells were plated 1 day in advance of experiment at a concentration of 80,000 cells/well onto CellBIND® 96 well plates (Corning, N.Y.) in a total volume of 100 μL. The next day, pre-treat cells with compounds (from 3 μM to 0.3 nM serially diluted in a 10 point curve) from a 10× stock by adding 10 μL per well in complete DMEM media containing 10% fetal calf serum. The plates were centrifuged for 3 minutes at 400×g at room temperature followed by 2 hour incubation at 37° C. The cells were then incubated overnight at 37° C. with 10 μL of the insult, interferon gamma (R&D Systems, Minneapolis, Minn.), from a 10× stock for a final concentration of 20 ng/mL. The plates were centrifuged for 3 minutes at 400×g at room temperature followed by 18 hour incubation at 37° C. The following day, transfer 50 μL cell culture supernatant from each well into a clear bottom 96 well plate and follow the instructions from Promega's Griess Detection Kit #G2930 (Madison, Wis.) which involves the addition of 50 μL of the provided sulfanilamide solution for a 5-10 minute incubation at room temperature. Next add 50 μL of the provided N-1-napthylethylenediamine dihydrochloride (NED) solution for a 5-10 minute incubation at room temperature and protected from light. If any air bubbles were introduced into the well, the plates need to be centrifuged for 5 minutes at 400×g at room temperature to avoid interference with absorbance readings. The plates were read for absorbance within 30 minutes with a filter between 520 nm and 550 nm.
For the ability of compounds to suppress the increase in nitric oxide release, the percent maximal intensity of nitric oxide detected in each well was normalized to that induced by the peak value for 20 ng/mL of interferon gamma alone and plotted against the compound concentration to calculate IC50 values and to control for plate-to-plate variability. Concentration-response data were analyzed using GraphPad Prism (San Diego, Calif.); the IC50 values were derived from a single curve fit to the mean data of n=2-3, in duplicates.
All compounds were dissolved in dimethyl sulfoxide at 10 mM stock solutions and tested at a concentration that the dimethyl sulfoxide levels never exceeded 1%.
On the technique in general: Nitrite, measured by Griess reagent, commonly stands in for NO production.
As to `CC1(C)C(=O)C(C#N)=C[C@]2(C)C3=CC(=O)[C@]4(O)[C@@H]5C[C@@](C)(C(=O)NCc6ccno6)CC[C@]5(C)CC[C@@]4(C)[C@]3(C)CC[C@@H]12` [Example 30, (2S,4aS,6aS,6bR,8aR,12aS,14aS,14bR)-11-cyano-14a-hydroxy-2,4a,6a,6b,9,9,12a-heptamethyl-N-(1,2-oxazol-5-ylmethyl)-10,14-dioxo-1,2,3,4,4a,5,6,6a,6b,7,8,8a,9,10,12a,14,14a,14b-octadecahydropicene-2-carboxamide], the negative logarithm of the IC50 (pIC50) was 7.91.

For `CC1(C)C(=O)C(C#N)=C[C@]2(C)C3=CC(=O)[C@@H]4[C@@H]5C[C@@](C)(C(=O)NCc6cnco6)CC[C@]5(C)CC[C@@]4(C)[C@]3(C)CC[C@@H]12` [Example 39, (2S,4aS,6aR,6bS,8aR,12aS,14aR,14bS)-11-cyano-2,4a,6a,6b,9,9,12a-heptamethyl-N-(1,3-oxazol-5-ylmethyl)-10,14-dioxo-1,2,3,4,4a,5,6,6a,6b,7,8,8a,9,10,12a,14,14a,14b-octadecahydropicene-2-carboxamide], the negative logarithm of the IC50 (pIC50) was 8.24.

In turn, `CC1(C)C(=O)C(C#N)=C[C@]2(C)C3=CC(=O)[C@]4(O)[C@@H]5C[C@@](C)(C(=O)NCCO)CC[C@]5(C)CC[C@@]4(C)[C@]3(C)CC[C@@H]12` [Example 4, (2S,4aS,6aS,6bR,8aR,12aS,14aS,14bR)-11-cyano-14a-hydroxy-N-(2-hydroxyethyl)-2,4a,6a,6b,9,9,12a-heptamethyl-10,14-dioxo-1,2,3,4,4a,5,6,6a,6b,7,8,8a,9,10,12a,14,14a,14b-octadecahydropicene-2-carboxamide] showed a negative-log IC50 (pIC50) of 7.26.

`CC(O)CNC(=O)[C@@]1(C)CC[C@]2(C)CC[C@@]3(C)[C@]4(C)CC[C@H]5C(C)(C)C(=O)C(C#N)=C[C@]5(C)C4=CC(=O)[C@]3(O)[C@@H]2C1` (stereo partly drawn) [Example 19, (2S,4aS,6aS,6bR,8aR,12aS,14aS,14bR)-11-cyano-14a-hydroxy-N-(2-hydroxypropyl)-2,4a,6a,6b,9,9,12a-heptamethyl-10,14-dioxo-1,2,3,4,4a,5,6,6a,6b,7,8,8a,9,10,12a,14,14a,14b-octadecahydropicene-2-carboxamide] showed a pIC50 of 7.17.

`CCC(C)CNC(=O)[C@@]1(C)CC[C@]2(C)CC[C@@]3(C)[C@]4(C)CC[C@H]5C(C)(C)C(=O)C(C#N)=C[C@]5(C)C4=CC(=O)[C@]3(O)[C@@H]2C1` (stereo partly drawn) [Example 33, (2S,4aS,6aS,6bR,8aR,12aS,14aS,14bR)-11-cyano-14a-hydroxy-2,4a,6a,6b,9,9,12a-heptamethyl-N-(2-methylbutyl)-10,14-dioxo-1,2,3,4,4a,5,6,6a,6b,7,8,8a,9,10,12a,14,14a,14b-octadecahydropicene-2-carboxamide] had a pIC50 of 7.36.

Consider `CC1(C)C(=O)C(C#N)=C[C@]2(C)C3=CC(=O)[C@]4(O)[C@@H]5C[C@@](C)(C(=O)NCc6cccnn6)CC[C@]5(C)CC[C@@]4(C)[C@]3(C)CC[C@@H]12` [Example 8, (2S,4aS,6aS,6bR,8aR,12aS,14aS,14bR)-11-cyano-14a-hydroxy-2,4a,6a,6b,9,9,12a-heptamethyl-10,14-dioxo-N-(pyridazin-3-ylmethyl)-1,2,3,4,4a,5,6,6a,6b,7,8,8a,9,10,12a,14,14a,14b-octadecahydropicene-2-carboxamide], for which the pIC50 was 7.55.

As to `COC(=O)[C@@]1(C)CC[C@]2(C)CC[C@@]3(C)[C@]4(C)CC[C@H]5C(C)(C)C(=O)C(C#N)=C[C@]5(C)C4=CC(=O)[C@]3(O)[C@@H]2C1` [Example 1, (2S,4aS,6aS,6bR,8aR,12aS,14aS,14bR)-methyl 11-cyano-14a-hydroxy-2,4a,6a,6b,9,9,12a-heptamethyl-10,14-dioxo-1,2,3,4,4a,5,6,6a,6b,7,8,8a,9,10,12a,14,14a,14b-octadecahydropicene-2-carboxylate], the negative-log IC50 (pIC50) is 7.79.

`CC1(C)C(=O)C(C#N)=C[C@]2(C)C3=CC(=O)[C@]4(O)[C@@H]5C[C@@](C)(C(=O)NCC#N)CC[C@]5(C)CC[C@@]4(C)[C@]3(C)CC[C@@H]12` [Example 29, (2S,4aS,6aS,6bR,8aR,12aS,14aS,14bR)-11-cyano-N-(cyanomethyl)-14a-hydroxy-2,4a,6a,6b,9,9,12a-heptamethyl-10,14-dioxo-1,2,3,4,4a,5,6,6a,6b,7,8,8a,9,10,12a,14,14a,14b-octadecahydropicene-2-carboxamide] had a pIC50 of 7.77.

`CC1(C)C(=O)C(C#N)=C[C@]2(C)C3=CC(=O)[C@]4(O)[C@@H]5C[C@@](C)(C(=O)NCc6ccnnc6)CC[C@]5(C)CC[C@@]4(C)[C@]3(C)CC[C@@H]12` [Example 5, (2S,4aS,6aS,6bR,8aR,12aS,14aS,14bR)-11-cyano-14a-hydroxy-2,4a,6a,6b,9,9,12a-heptamethyl-10,14-dioxo-N-(pyridazin-4-ylmethyl)-1,2,3,4,4a,5,6,6a,6b,7,8,8a,9,10,12a,14,14a,14b-octadecahydropicene-2-carboxamide]: the pIC50 is 7.30.

As for `COCCNC(=O)[C@@]1(C)CC[C@]2(C)CC[C@@]3(C)[C@]4(C)CC[C@H]5C(C)(C)C(=O)C(C#N)=C[C@]5(C)C4=CC(=O)[C@]3(O)[C@@H]2C1` [Example 16, (2S,4aS,6aS,6bR,8aR,12aS,14aS,14bR)-11-cyano-14a-hydroxy-N-(2-methoxyethyl)-2,4a,6a,6b,9,9,12a-heptamethyl-10,14-dioxo-1,2,3,4,4a,5,6,6a,6b,7,8,8a,9,10,12a,14,14a,14b-octadecahydropicene-2-carboxamide], the pIC50 was 8.07.

On to `CC(C)CNC(=O)[C@@]1(C)CC[C@]2(C)CC[C@@]3(C)[C@]4(C)CC[C@H]5C(C)(C)C(=O)C(C#N)=C[C@]5(C)C4=CC(=O)[C@]3(O)[C@@H]2C1` [Example 32, (2S,4aS,6aS,6bR,8aR,12aS,14aS,14bR)-11-cyano-14a-hydroxy-N-isobutyl-2,4a,6a,6b,9,9,12a-heptamethyl-10,14-dioxo-1,2,3,4,4a,5,6,6a,6b,7,8,8a,9,10,12a,14,14a,14b-octadecahydropicene-2-carboxamide], for which the negative-log IC50 (pIC50) is 8.06.

`COC(=O)[C@@H]1CCCN1C(=O)[C@@]1(C)CC[C@]2(C)CC[C@@]3(C)[C@]4(C)CC[C@H]5C(C)(C)C(=O)C(C#N)=C[C@]5(C)C4=CC(=O)[C@]3(O)[C@@H]2C1` [Example 24, methyl 1-{[(2S,4aS,6aS,6bR,8aR,12aS,14aS,14bR)-11-cyano-14a-hydroxy-2,4a,6a,6b,9,9,12a-heptamethyl-10,14-dioxo-1,2,3,4,4a,5,6,6a,6b,7,8,8a,9,10,12a,14,14a,14b-octadecahydropicen-2-yl]carbonyl}prolinate] showed a negative-log IC50 (pIC50) of 7.78.

As for `COCC(COC)NC(=O)[C@@]1(C)CC[C@]2(C)CC[C@@]3(C)[C@]4(C)CC[C@H]5C(C)(C)C(=O)C(C#N)=C[C@]5(C)C4=CC(=O)[C@]3(O)[C@@H]2C1` [Example 23, (2S,4aS,6aS,6bR,8aR,12aS,14aS,14bR)-11-cyano-N-(1,3-dimethoxypropan-2-yl)-14a-hydroxy-2,4a,6a,6b,9,9,12a-heptamethyl-10,14-dioxo-1,2,3,4,4a,5,6,6a,6b,7,8,8a,9,10,12a,14,14a,14b-octadecahydropicene-2-carboxamide], the pIC50 is 7.97.

Take `CC1(C)C(=O)C(C#N)=C[C@]2(C)C3=CC(=O)[C@]4(O)[C@@H]5C[C@@](C)(C(=O)O)CC[C@]5(C)CC[C@@]4(C)[C@]3(C)CC[C@@H]12` [Example 3D, (2S,4aS,6aS,6bR,8aR,12aS,14aS,14bR)-11-cyano-14a-hydroxy-2,4a,6a,6b,9,9,12a-heptamethyl-10,14-dioxo-1,2,3,4,4a,5,6,6a,6b,7,8,8a,9,10,12a,14,14a,14b-octadecahydropicene-2-carboxylic acid]: the pIC50 was 6.52.

`Cn1cc(CNC(=O)[C@@]2(C)CC[C@]3(C)CC[C@@]4(C)[C@]5(C)CC[C@H]6C(C)(C)C(=O)C(C#N)=C[C@]6(C)C5=CC(=O)[C@]4(O)[C@@H]3C2)cn1` [Example 9, (2S,4aS,6aS,6bR,8aR,12aS,14aS,14bR)-11-cyano-14a-hydroxy-2,4a,6a,6b,9,9,12a-heptamethyl-N-[(1-methyl-1H-pyrazol-4-yl)methyl]-10,14-dioxo-1,2,3,4,4a,5,6,6a,6b,7,8,8a,9,10,12a,14,14a,14b-octadecahydropicene-2-carboxamide]: the negative-log IC50 (pIC50) was 7.89.
